Columns and labels:
aurora2 kinase = target: T1, aurora2 kinase (Homo sapiens, UniProt O14965); test: In vitro aurora2 kinase inhibition test; assay type: biochemical
T1 construct: 6 His with spacer region and rTEV protease cleavage site (pFastBac HTc) (N); made in house; host or cells: Spodoptera frugiperda Sf21 insect cells (baculovirus, pFastBac HTc)
T1 sequence (O14965 1-403): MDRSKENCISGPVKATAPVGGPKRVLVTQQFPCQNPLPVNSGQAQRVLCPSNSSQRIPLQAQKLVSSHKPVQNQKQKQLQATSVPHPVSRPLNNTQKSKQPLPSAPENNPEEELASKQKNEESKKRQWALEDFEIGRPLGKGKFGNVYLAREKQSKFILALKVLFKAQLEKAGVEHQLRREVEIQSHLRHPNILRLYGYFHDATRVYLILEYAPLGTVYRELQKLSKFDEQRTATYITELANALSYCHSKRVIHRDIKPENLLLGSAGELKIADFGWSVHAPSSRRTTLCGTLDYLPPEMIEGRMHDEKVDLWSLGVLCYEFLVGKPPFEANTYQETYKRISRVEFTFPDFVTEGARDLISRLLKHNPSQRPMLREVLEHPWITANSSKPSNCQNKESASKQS

MCF-7 cells = test: In vitro cell proliferation assay, Assay 1 (CyQUANT cell density); assay type: cell-based; conditions: Homo sapiens, MCF7, 72 h, MCF-7, 3 days with compound, read-out: concentration giving 50% inhibition of cell proliferation
Excerpt: (b) In Vitro Cell Proliferation Assay
These and other assays can be used to determine the ability of a test compound to inhibit the growth of adherent mammalian cell lines, for example the human tumour cell line MCF7.
Assay 1: MCF-7 (ATCC HTB-22) or other adherent cells were typically seeded at 1×10^3 cells per well (excluding the peripheral wells) in DMEM (Sigma Aldrich) without phenol red, plus 10% foetal calf serum, 1% L-glutamine and 1% penicillin/streptomycin in 96 well tissue culture treated clear plates (Costar). The following day (day 1), the media was removed from a no treatment control plate and the plate stored at −80° C. […] The fluorescence of the wells was then measured using a fluorescence microplate reader (gain 70, 2 reads per well, 1 cycle with excitation 485 nm and emission 530 nm using a CytoFluor plate reader (PerSeptive Biosystems Inc.)). […]

MCF7 cells = test: In vitro cell cycle analysis assay (FACS, propidium iodide); assay type: cell-based, human; conditions: MCF7, 24.8 μM, 24 hours
Protocol: (c) In Vitro Cell Cycle Analysis Assay
This assay determines the ability of a test compound to arrest cells in specific phases of the cell cycle. Many different mammalian cell lines could be used in this assay and MCF7 cells are included here as an example. MCF-7 cells were seeded at 3×10^5 cells per T25 flask (Costar) in 5 ml DMEM (no phenol red 10% FCS, 1% L-glutamine 1% penicillin/streptomycin). Flasks were then incubated overnight in a humidified 37° C. incubator with 5% CO2. The following day 1 ml of DMEM (no phenol red 10% FCS, 1% L-glutamine 1% penicillin/streptomycin) carrying the appropriate concentration of test compound solubilised in DMSO was added to the flask. A no compound control treatments was also included (0.5% DMSO). The cells were then incubated for a defined time (usually 24 hours) with compound. After this time the media was aspirated from the cells and they were washed with 5 ml of prewarmed (37° C.) sterile PBSA, then detached from the flask by brief incubation with trypsin and followed by resuspension in 10 ml of 1% Bovine Serum Albumin (BSA, Sigma-Aldrich Co.) in sterile PBSA. The samples were then centrifuged at 2200 rpm for 10 min. The supernatant was aspirated and the cell pellet was resuspended in 200%1 of 0.1% (w/v) Tris sodium citrate, 0.0564% (w/v) NaCl, 0.03% (v/v) Nonidet NP40, [pH 7.6]. Propridium Iodide (Sigma Aldrich Co.) was added to 40 μg/ml and RNAase A (Sigma Aldrich Co.) to 100 μg/ml. The cells were then incubated at 37° C. for 30 minutes. The samples were centrifuged at 2200 rpm for 10 min, the supernatant removed and the remaining pellet (nuclei) resuspended in 200%1 of sterile PBSA. […] The samples were then transferred to LPS tubes and DNA content per cell analysed by Fluorescence activated cell sorting (FACS) using a FACScan flow cytometer (Becton Dickinson). Typically 25000 events were counted and recorded using […]. Cell cycle distribution of the population was calculated using Modfit software (Verity Software) and expressed as percentage of cells in G0/G1, S and G2/M phases of the cell cycle.

`COc1ccnc(COc2ccc(Nc3ncnc4cc(OC)c(OC)cc34)cc2C)c1` [Compound 43] was tested, and the IC50 (aurora2 kinase) was 0.465 µM, the IC50 (MCF-7 cells) was 12.4 µM and the “% Cells in G1” value (MCF7 cells) was 37.29%. For the same molecule, the “% Cells in G2/M” value (MCF7 cells) was 28.78% and the “% Cells in S” value (MCF7 cells) was 33.93%.

— patent US7081461B1, “Quinazoline compounds and pharmaceutical compositions containing them” (AstraZeneca AB, priority 1999, dated 2006)
